Measurements from patent publication US20170008888A1 (KYORIN PHARMACEUTICAL CO., LTD., priority 2014, published 2017).
Like-named read-outs stand apart in the source and are kept apart here.

How the values were obtained:
[1] = biological target: T1, panel of 40 bromodomain-containing proteins (Homo sapiens, UniProt Q09472); assay: Bromodomain binding assay (T7 phage, qPCR): further proteins of the panel; conditions: EP300
T1 construct: T7 phage strains displaying bromodomains were grown in parallel; made in house; host or cells: E. coli host derived from BL21, infected with T7 phage
Method: (§1) T7 phage strains displaying bromodomains were grown in parallel in 24-well blocks in an E. coli host derived from the BL21 strain. E. coli were grown to log-phase and infected with T7 phage from a frozen stock (multiplicity of infection=0.4) and incubated with shaking at 32° C. until lysis (90-150 minutes). The lysates were centrifuged (5,000×g) and filtered (0.2 μm) to remove cell debris. […] The liganded beads were blocked with excess biotin and washed with blocking buffer (SeaBlock (Pierce), 1% BSA, 0.05 Tween 20, 1 mM DTT) to remove unbound ligand and to reduce non-specific phage binding. […] Test compounds (T62 and 46) were prepared as 1000× stocks in 100% DMSO and subsequently diluted 1:10 in monoethylene glycol (MEG) to create stocks at 100× the screening concentration (resulting stock solution is 10% DMSO/90% MEG). The compounds were then diluted directly into the assays such that the final concentration of DMSO and MEG were 0.1% and 0.9%, respectively. All reactions were performed in polystyrene 96-well plates in a final volume of 0.135 ml. […] The bromodomain concentration in the eluates was measured by qPCR. Compounds were assayed for binding activity against a panel of 40 bromodomain-containing proteins.

[2] = biological target: T2, panel of 40 bromodomain-containing proteins (Homo sapiens, UniProt Q92793); assay: as above; conditions: CREBBP
T2 construct: T7 phage strains displaying bromodomains were grown in parallel; made in house; host or cells: E. coli host derived from BL21, infected with T7 phage
Method: as §1

BRDT = biological target: T3, BRDT (Homo sapiens, UniProt Q58F21); assay: Bromodomain binding assay: BRDT
T3 construct: read out by qPCR of the phage DNA
Method: as §1

BAZ2A = biological target: T4, BAZ2A (Homo sapiens, UniProt Q9UIF9); assay: Bromodomain binding assay: BAZ2A
T4 construct: T7 phage strains displaying bromodomains were grown in parallel; made in house; host or cells: E. coli host derived from BL21, infected with T7 phage
Method: as §1

BRD9 = biological target: T5, BRD9 (Homo sapiens, UniProt Q9H8M2); assay: Bromodomain binding assay: BRD9
T5 construct: T7 phage strains displaying bromodomains were grown in parallel; made in house; host or cells: E. coli host derived from BL21, infected with T7 phage
Method: as §1

BRPF3 = biological target: T6, BRPF3 (Homo sapiens, UniProt Q9ULD4); assay: Bromodomain binding assay: BRPF3
T6 construct: T7 phage strains displaying bromodomains were grown in parallel; made in house; host or cells: E. coli host derived from BL21, infected with T7 phage
Method: as §1

GCN5L2 = biological target: T7, GCN5L2 (Homo sapiens, UniProt Q92830); assay: Bromodomain binding assay: GCN5L2
T7 construct: made in house; host or cells: E. coli host derived from the BL21 strain (T7 phage lysate)
Method: as §1

[3] = system: Asthmatic lung fibroblasts; assay: TGF-β-induced fibrotic response (α-SMA expression) in asthmatic lung fibroblasts; format: cell-based; conditions: Homo sapiens, Fibroblast; 2 ng/ml TGF-β1, 48 h; Western blot; read-out: Inhibition of α-SMA expression, EC50 (μM), Asthmatic lung fibroblasts
Method: Nontransformed, human fetal lung fibroblasts (HFL-1) were obtained from ATCC (Manassas, Va.) and maintained in F12K media containing 10% (v/v) charcoal-dextran treated, heat inactivated FBS (Omega Scientific, Tarzana, Calif.). Primary lung fibroblasts isolated from a patient diagnosed with asthma were obtained from Lonza (Allendale, N.J.) and maintained in FGM-2 fibroblast growth medium (Lonza). Cells were seeded at a density to provide 50-60% confluence after an overnight incubation at 37° C. in a humidified atmosphere at 5% CO2. […] Protein content was determined using the Bio-Rad Dc Protein kit (Bio-Rad Laboratories, Hercules, Calif.), and normalized prior to adding an equal volume of 2× Laemmli sample buffer (Sigma). Proteins in the whole cell lysates were resolved via SDS-PAGE gel electrophoresis, and α-SMA was detected via Western blot analysis using a rabbit anti-human α-SMA polyclonal antibody (Abcam, Cambridge, Mass.). α-SMA signal was normalized to the signal of β-actin as detected using mouse anti-human […] antibody (Cell Signaling Technology). DyLight 680 and 800 conjugated secondary antibodies were used and the infrared signals were detected using the Odyssey Imaging System (LI-COR Biotechnology, Lincoln, Nebr.).

[4] = system: diseased primary human synovial fibroblasts; assay: Cytokine response by primary human synovial fibroblasts stimulated with IL-17A, TNF-α or both; format: cell-based; conditions: Fibroblast, 48 h
Method: Primary synovial fibroblasts isolated from the knee of a patient diagnosed with rheumatoid arthritis/osteoarthritis were obtained from Asterand (Detroit, Mich.) and maintained in FGM-2 fibroblast growth medium (Lonza, Allendale, N.J.). Cells were seeded at approximately 1.6e4 cells/ml and incubated at 37° C. in a humidified atmosphere at 5% CO2 until the cells reached ˜90% confluence. Cells were pre-treated with the test compounds (10 μM down by ⅕ in a 4-point serial dilution series) for 1 h at 37° C. in a humidified atmosphere at 5% CO2. DMSO at a final concentration of 0.1% served as the non-inhibited control. […] Cells were stimulated with 10 ng/ml human recombinant IL-17A (eBioscience, San Diego, Calif.), 10 ng/ml TNF-α, (Cell Signaling Technology, Danvers, Mass.) or both, for 48 h. Supernatant was then collected and analyzed for cytokine concentrations using the Bio-Plex Pro Human Cytokine 17-Plex Panel supplemented with RANTES and VEGF Singleplex analytes (Bio-Rad Laboratories, Hercules, Calif.) according to the manufacturer's instructions. Magnetic beads were measured on the Bio-Plex MAGPIX multiplex reader instrument using the accompanying xPONENT 4.2 acquisition software (Bio-Rad Laboratories). Data were analyzed via the Bio-Plex Manager software v6.1 (Bio-Rad Laboratories).

[5] = +Both IL-17A + TNF-α, read-out: EC50 (μM), G-CSF
[6] = +Both IL-17A + TNF-α, read-out: EC50 (μM), IL-6
[7] = +Both IL-17A + TNF-α, read-out: EC50 (μM), IL-8
[8] = +Both IL-17A + TNF-α, read-out: EC50 (μM), RANTES
[9] = +IL-17A 10 ng/ml, read-out: EC50 (μM), G-CSF
[10] = +IL-17A 10 ng/ml, read-out: EC50 (μM), IL-6
[11] = +IL-17A 10 ng/ml, read-out: EC50 (μM), IL-8
[12] = +IL-17A 10 ng/ml, read-out: EC50 (μM), RANTES
[13] = +TNF-α 10 ng/ml, read-out: EC50 (μM), G-CSF
[14] = +TNF-α 10 ng/ml, read-out: EC50 (μM), IL-6
[15] = +TNF-α 10 ng/ml, read-out: EC50 (μM), IL-8
[16] = +TNF-α 10 ng/ml, read-out: EC50 (μM), RANTES

T2 sequence (Q92793 1081-1197): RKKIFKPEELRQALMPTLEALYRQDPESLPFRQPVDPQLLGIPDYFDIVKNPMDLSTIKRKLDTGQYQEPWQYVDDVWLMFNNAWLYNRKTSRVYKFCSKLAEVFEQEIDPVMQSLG
T5 sequence (Q9H8M2 136-240 limits assumed, species assumed): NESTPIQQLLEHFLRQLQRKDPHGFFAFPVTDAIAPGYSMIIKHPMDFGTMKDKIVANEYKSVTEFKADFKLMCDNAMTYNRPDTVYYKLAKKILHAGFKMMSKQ
T6 sequence (Q9ULD4 589-693 limits assumed, species assumed): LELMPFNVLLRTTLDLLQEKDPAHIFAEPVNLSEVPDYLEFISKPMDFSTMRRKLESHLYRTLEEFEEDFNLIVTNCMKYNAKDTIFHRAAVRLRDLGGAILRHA
T4 sequence (Q9UIF9 1793-1897 limits assumed, species assumed): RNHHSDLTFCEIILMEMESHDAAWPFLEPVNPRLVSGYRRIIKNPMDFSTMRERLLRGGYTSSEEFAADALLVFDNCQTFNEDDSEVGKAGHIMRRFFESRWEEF
T7 sequence (Q92830 728-832 limits assumed): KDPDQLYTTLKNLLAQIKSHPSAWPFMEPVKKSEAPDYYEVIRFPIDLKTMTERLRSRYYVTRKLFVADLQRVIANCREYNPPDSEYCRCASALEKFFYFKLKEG
T1 sequence (Q09472 1045-1161): as the sequence (Q92793 1081-1197) above, with R1K, N51S, V77I, F97Y, A102S counted along it

Row | Kd [1] [nM] | Kd [2] [nM] | Kd (BRDT) [nM] | Kd (BAZ2A) [nM] | Kd (BRD9) [nM] | Kd (BRPF3) [nM] | Kd (GCN5L2) [nM] | Structure (SMILES) | EC50 [3] [µM] | EC50 [4, 5] [µM] | EC50 [4, 6] [µM] | EC50 [4, 7] [µM] | EC50 [4, 8] [µM] | EC50 [4, 9] [µM] | EC50 [4, 10] [µM] | EC50 [4, 11] [µM] | EC50 [4, 12] [µM] | EC50 [4, 13] [µM] | EC50 [4, 14] [µM] | EC50 [4, 15] [µM] | EC50 [4, 16] [µM]
1 | 7500 | 3300 | 169 | > 20000 | > 20000 | > 20000 | > 20000 | CCOc1cc(C(=O)N2CCC(N3CCCC3)CC2)ccc1Nc1cc2c(cn1)N(C)C(=O)c1ccccc1N2C [Compound 46, 3-(2-Ethoxy-4-(4-(pyrrolidin-1-yl)piperidine-1-carbonyl)phenylamino)-5,11-dimethyl-5H-benzo[e]pyrido[3,4-b][1,4]diazepin-10(11H)-one] |  |  |  |  |  |  |  |  |  |  |  |  | 
2 |  |  |  |  |  |  |  | CCOc1cc(C(=O)N2CCC(N3CCN(C)CC3)CC2)ccc1Nc1cc2c(cn1)N(C)C(=O)c1ccccc1N2C [Compound 61] | 3.69 | > 10 | > 10 | > 10 | 1.35 | 2.59 | 1.67 | 0.87 | > 10 | 1.27 | 1.05 | 4.51 | 2.78
3 |  |  |  |  |  |  |  | CCOc1cc(C(=O)N2CC[C@@H](N(C)C)C2)ccc1Nc1cc2c(cn1)N(C)C(=O)c1ccccc1N2C [Compound 115] | 1.37 | > 10 | > 10 | > 10 | 1.88 | 2.67 | 1.04 | 0.39 | > 10 | 1.25 | 1.71 | > 10 | > 10
4 | 1100 | 1200 | 397 | > 20000 | > 20000 | > 20000 | > 20000 | CCOc1cc(C(=O)N[C@H]2CC[C@H](O)CC2)ccc1Nc1cc2c(cn1)N(C)C(=O)c1ccccc1N2C [Compound T62] |  |  |  |  |  |  |  |  |  |  |  |  | 
